For data set [1], the system named is KLK6. The conditions noted are these: published KLK6 inhibitors ref 18; cited from earlier work.
Data set [2] concerns the target T1, KLK6 (Homo sapiens, UniProt Q92876). The data set can be described thus: SPR binding assay (Biacore T200, KLK6 immobilized on CM5 chip). The conditions noted are these: read-out: KLK6 pKD (converted). How it is done: High Throughput Screen: The European Lead Factory library of ∼350,000 compounds was used for high throughput screening at the Pivot Park Screening Center facilities in Oss, The Netherlands. HighRes Biosolutions robotic infrastructure using Cellario software was programmed to perform screening of 281 1536‐well plates. Using the primary KLK6 fluorescent intensity (FI) assay (see below), 7794 compounds having a Z‐score≤‐4 were selected for further follow‐up. An additional set of compounds was added based on Bayesian modeling to include potential false negatives in the hit confirmation. […] Upon testing of these compounds using SPR and LC‐MS, a qualified hit list (QHL) was registered containing 50 compounds. For SPR, Biacore T200 was used and KLK6 was immobilized onto a CM5 chip. 226 test compounds were screened at 4 concentrations: 20, 4, 0.8 and 0.16 μM in running buffer: 50 mM Tris‐HCl, 1 mM EDTA pH 7.5, 150 mM NaCl, 0.05 % Tween 20, 3 % DMSO at 25 °C. Control injections of 5 μM 1 were used throughout the screen to ensure that KLK6 was stable and had not been blocked by potential irreversible binders/denaturants. An 8 point 1 in 3 dilution series of 1 (50 μM to 0.02 μM) was also applied at the beginning and end of each screening day.
In general terms: Surface plasmon resonance follows binding to a sensor surface in real time, without labels.

A further data set concerns the target KLK4 (Homo sapiens, UniProt Q9Y5K2). The data set can be described thus: KLK4 inhibition (selectivity). The data set is classed as biochemical. The settings on record: read-out: KLK4 pIC50 (converted). The text has this: Table 3 Activity of synthesized inhibitors against KLK6 and related proteases. | column: KLK4^a
The next data set concerns the target T2, KLK7 (Homo sapiens, UniProt P49862).
T2 construct: purchased 2B scientific
Put plainly: KLK7 enzyme inhibition assay. The data set is classed as biochemical. The settings on record: read-out: KLK7 pIC50 (converted). How it is done:
(§1) Enzyme inhibition assays: All chemicals were purchased from Sigma Aldrich (Gillingham, UK) unless otherwise stated. All experiments were conducted in 384 well black, low volume microplates (Greiner 784076) with a final volume of 20 μL and compounds were dispensed into assay plates using an ECHO 550 acoustic dispenser (Labcyte). KLK6 (5 nM) (prepared as in ref. 21) was incubated with test compounds for 30 min at room temperature in assay buffer (50 mM Tris, pH 7.5, 150 mM NaCl, 1 mM EDTA, 0.05 % tween 20, 0.1 % bovine serum albumin (BSA), 1 mM dithiothreitol (DTT)) before the reaction was started by addition of 20 μM Boc‐Phe‐Ser‐Arg‐AMC substrate (Bachem). Fluorescence intensity was read at ex/em 355/460 following incubation for 2 h in the dark at room temperature.
(§2) Assays using KLK7 and KLK8 (2B scientific) were conducted in the same manner as for KLK6 with the following exceptions. Both KLK7 and KLK8 required activation before assaying. KLK7 was combined with an equal volume of 20 μg/ml thermolysin (R&D systems) in activation buffer (50 mM Tris, pH 7.5, 10 mM CaCl2, 150 mM NaCl and 0.05 % Brij‐L23) and incubated at 37 °C for 2 h, the reaction was stopped with the addition of 100 mM EDTA in stop solution (50 mM Tris, 150 mM NaCl, pH 8.5). KLK8 was combined with an equal volume of 0.4 mU/mL lysyl endopeptidase (Alpha laboratories) in activation buffer (50 mM Tris, pH 8.0) and incubated at 37 °C for 30 min. Activated KLK7 (40 nM) and KLK8 (25 nM) were assayed with 40 μM Mca‐RPKPVE‐Nval‐WRK(Dnp)‐NH2 fluorogenic MMP substrate (R&D systems) and 25 μM Boc‐V‐P‐R‐AMC substrate (R&D systems), respectively.

A further data set has as its target T3, KLK8 (Homo sapiens, UniProt O60259).
T3 construct: purchased 2B scientific
T3 sequence (O60259 33-260): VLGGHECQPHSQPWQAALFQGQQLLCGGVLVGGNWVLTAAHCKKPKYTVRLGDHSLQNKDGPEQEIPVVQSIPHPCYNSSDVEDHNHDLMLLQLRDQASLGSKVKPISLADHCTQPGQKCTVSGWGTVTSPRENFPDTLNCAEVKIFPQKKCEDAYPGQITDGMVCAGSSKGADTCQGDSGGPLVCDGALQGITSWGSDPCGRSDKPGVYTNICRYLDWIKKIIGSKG
Put plainly: KLK8 enzyme inhibition assay. The data set is classed as biochemical. The settings on record: read-out: KLK8 pIC50 (converted). The protocol:
as §1, §2

The target of the next data set is T4, Human trypsin (Homo sapiens, UniProt P07477).
T4 construct: purchased Polymun Scientific
The data set can be described thus: Trypsin enzyme inhibition assay. Type of data set: biochemical. The conditions noted are these: read-out: Trypsin pIC50 (converted). The protocol: Human thrombin was purchased from Biopur. Human trypsin was purchased from Polymun Scientific. Human Factor Xa was purchased from Enzo Life Sciences. […] Fluorescence intensity was then read at ex/em 485/535 following incubation for 1 h at room temperature (thrombin and factor Xa) or 20 min (trypsin).

A further data set deals with T5, Human thrombin (Homo sapiens, UniProt P00734).
T5 construct: Human thrombin was purchased from Biopur; purchased Biopur
Put plainly: Thrombin enzyme inhibition assay. The conditions noted are these: read-out: Thrombin pIC50 (converted). The data set is classed as biochemical. The protocol:
(§3) Human thrombin was purchased from Biopur. Human trypsin was purchased from Polymun Scientific. Human Factor Xa was purchased from Enzo Life Sciences. Thrombin (20 nM), trypsin (0.000015 %) or Factor Xa (10 nM) were assayed in a similar manner to the KLKs but were incubated with compound for 20 min at room temperature in assay buffer (50 mM Tris HCl, pH 7.6, 100 mM NaCl, 1 mg/ml CHAPS, 0.05 % bovine serum albumin (BSA), 1 mM dithiothreitol (DTT)) before the addition of 5 μM, 2.5 μM or 1.5 μM Rhodamine 110 substrate (Cambridge bioscience ltd) respectively. Fluorescence intensity was then read at ex/em 485/535 following incubation for 1 h at room temperature (thrombin and factor Xa) or 20 min (trypsin).

Another data set addresses T6, Human Factor Xa (Homo sapiens, UniProt P00742).
T6 construct: Human Factor Xa was purchased from Enzo Life Sciences; purchased Enzo Life Sciences
Put plainly: Factor Xa enzyme inhibition assay. The settings on record: read-out: Factor Xa pIC50 (converted). The data set is classed as biochemical. The protocol:
as §3

In data set [3] the target is T1, KLK6. The data set can be described thus: KLK6 enzymatic inhibition assay (fluorogenic Boc-Phe-Ser-Arg-AMC substrate). The arrangement: made in house. The settings on record: for IC50: read-out: KLK6 pIC50 (converted). Type of data set: biochemical. How it is done:
Using our previously published KLK6 assay format,21 we performed a HTS with the European Lead Factory (ELF),22 and tested ∼350,000 substances at 10 μM for their ability to reduce KLK6‐catalyzed hydrolysis of the fluorogenic Boc‐Phe‐Ser‐Arg‐AMC peptide.
High Throughput Screen: The European Lead Factory library of ∼350,000 compounds was used for high throughput screening at the Pivot Park Screening Center facilities in Oss, The Netherlands. […] For SPR, Biacore T200 was used and KLK6 was immobilized onto a CM5 chip. […] An 8 point 1 in 3 dilution series of 1 (50 μM to 0.02 μM) was also applied at the beginning and end of each screening day.
Enzyme inhibition assays: All chemicals were purchased from Sigma Aldrich (Gillingham, UK) unless otherwise stated.

Data set [4] relates to HCT116 cells. The data set can be described thus: HCT116 Matrigel invasion assay. The data set is classed as cell-based. The settings on record: after 24 h; 9 at multiple concentrations; 32 at 50 nM and 500 nM. The protocol:
Figure 5 HCT116 cells were treated with 9 or 32 at the indicated concentrations and plated on Matrigel®‐coated filters. The upper chamber contained serum‐free medium, while the lower chamber contained 10 % fetal bovine serum. After 24 h, the number of invading cells was measured optically. (A) This figure is one representative example of four biological replicates, each with similar outcomes. Error bars are SEM. Technical replicates: DMSO and 9 at 5 nM (n=3); 9 at 50 and 500 nM and 32 at all concentrations (n=6). Statistical significance was calculated using an unpaired two‐tailed t‐test. n.s=p≥0.05; **=p<0.01; ***=p<0.001. (B) Representative images (Scale bar, […]) of stained invaded cells outside of the inserts 24 h hours after treatment with 9, 32, or DMSO solvent control at the indicated concentrations. Phase contrast images were taken with EVOS FL Cell imagine system FL Auto microscope (Bio‐Rad).
Invasion assay: The HCT116 colorectal adenocarcinoma cell line (ATCC® CCL‐247™) was maintained in Dulbecco's Modified Eagle Medium (DMEM) with […] glucose, L‐glutamine w/o sodium pyruvate, supplemented with 10 % FBS and 1 % penicillin/streptomycin. […] The samples were transferred to a new 96 well plate and read at 560 nm on a Synergy 2 Multi‐Detection Microplate Reader (Bio‐Tek Instruments, Inc., Winooski, VT).

Data set [5] concerns HCT116 cells. The data set can be described thus: HCT116 cell growth and viability. The data set is classed as cell-based. The settings on record: at the tested concentrations (data not shown). The text has this:
We have previously shown that knockdown of KLK6 reduces migration and invasion of HCT116 cells in vitro.13 In order to test whether this effect could be recapitulated with small molecule KLK6 inhibitors, we measured the ability of 32 to reduce invasion of HCT116 cells. […] HCT116 cell growth and viability was not altered upon treatment with compounds 9 and 32 at the tested concentrations (data not shown).

Setting [6] is: HTS library sample, primary dose-response enzymatic inhibition assay.
The mark [7] stands for this setting: resynthesized stereoisomers, enzymatic inhibition assay (Table 2).
The mark [8] stands for this setting: synthesized inhibitors (Table 3), 8.6 = assay limit.

Data on nine compounds can be found in article PMC7004151, “Synthesis and Structure‐Activity Relationships of N‐(4‐Benzamidino)‐Oxazolidinones: Potent and Selective Inhibitors of Kallikrein‐Related Peptidase 6” (Chemmedchem, 2019).

Like-named read-outs stand apart in the source and are kept apart here.

Chain of KLK4 (Q9Y5K2 31-254, species assumed): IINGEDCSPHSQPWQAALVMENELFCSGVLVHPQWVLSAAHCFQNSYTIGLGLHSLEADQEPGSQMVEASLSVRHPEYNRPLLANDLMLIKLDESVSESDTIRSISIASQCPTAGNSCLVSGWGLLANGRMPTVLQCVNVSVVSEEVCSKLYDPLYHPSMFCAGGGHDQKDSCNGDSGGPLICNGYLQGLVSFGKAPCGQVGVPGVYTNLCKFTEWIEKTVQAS
T6 sequence (P00742 235-488 limits assumed): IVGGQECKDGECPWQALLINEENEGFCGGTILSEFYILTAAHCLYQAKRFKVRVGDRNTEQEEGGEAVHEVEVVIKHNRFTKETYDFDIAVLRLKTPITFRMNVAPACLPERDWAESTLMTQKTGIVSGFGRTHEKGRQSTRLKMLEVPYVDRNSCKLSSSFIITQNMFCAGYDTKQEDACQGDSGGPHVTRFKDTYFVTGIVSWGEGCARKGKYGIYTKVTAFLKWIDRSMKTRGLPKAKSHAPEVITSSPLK
T6 sequence (P00742 41-179 partner limits assumed): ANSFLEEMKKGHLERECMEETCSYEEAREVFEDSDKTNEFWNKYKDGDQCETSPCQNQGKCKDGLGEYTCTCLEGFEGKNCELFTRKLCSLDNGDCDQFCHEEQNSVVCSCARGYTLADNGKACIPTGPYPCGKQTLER
T2 sequence (P49862 30-253, species assumed): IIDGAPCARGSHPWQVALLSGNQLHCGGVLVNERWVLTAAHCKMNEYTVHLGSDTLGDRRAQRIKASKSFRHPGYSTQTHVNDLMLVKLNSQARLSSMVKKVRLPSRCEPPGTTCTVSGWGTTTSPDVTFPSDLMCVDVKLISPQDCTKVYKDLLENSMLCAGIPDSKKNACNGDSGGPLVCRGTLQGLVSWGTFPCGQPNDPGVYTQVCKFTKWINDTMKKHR

Take `NCc1ccc(NC(=O)c2c([O-])ccc[n+]2Cc2nccn2Cc2ccccc2)cc1` [Compound 1]: in the data set on KLK6 [1], the IC50 was 1.8 µM.

For `COc1cccc([C@H](C)NC(=O)[C@H]2CN(c3ccc(C(=N)N)cc3)C(=O)O2)c1` [Compound 5, (5R)‐3‐(4‐carbamimidoylphenyl)‐N‐[(S)‐1‐(3‐methoxyphenyl)ethyl]‐2‐oxooxazolidine‐5‐carboxamide], the Kd at KLK6 [2] was 0.1 µM. Also, the IC50 is 7.94 µM at KLK4; above 20 µM at KLK7; 10 µM on KLK8; 5.01 µM on Human trypsin; above 20 µM at Human thrombin; above 20 µM on Human Factor Xa. Also, the IC50 was 0.0631 µM on KLK6 [3] (setting [6]), 0.251 µM on KLK6 [3] (setting [7]) and 0.251 µM on KLK6 [3] (setting [8]). In addition, the LipE on KLK6 [3] (LipE=pIC50 – logP (KLK6 pIC50, ALogP)) is 4.79.

Regarding `N=C(N)c1ccc(N2CC(CC(=O)NCc3ccccc3C(F)(F)F)OC2=O)cc1` (stereo not shown) [Compound 6], the Kd at KLK6 [2] was 12.6 µM. Also, the IC50 on KLK6 [3] (setting [6]) is 10 µM.

`CCOC(=O)C[S+]([O-])CC1CN(c2ccc(C(=N)N)cc2)C(=O)O1` (stereo not shown) [Compound 7]: the Kd on KLK6 [2] was 20 µM. Also, the IC50 at KLK6 [3] (setting [6]) is 1.58 µM.

On to `CCN(CC)C(=O)c1cccc(OCC2CN(c3ccc(C(=N)N)cc3)C(=O)O2)c1` (stereo not shown) [Compound 8], for which, at KLK6 [2], the Kd was 7.94 µM. The IC50 on KLK6 [3] (setting [6]) is 7.94 µM.

For `COc1cccc([C@@H](C)NC(=O)[C@@H]2CN(c3ccc(C(=N)N)cc3)C(=O)O2)c1` [Compound 9], the “invasion of HCT116 cells” value in the data set with HCT116 cells [4] is “no significant effect”. In addition, the “HCT116 cell growth and viability” value in the data set with HCT116 cells [5] is “not altered”. For the same compound, the IC50 on KLK6 [3] (setting [7]) was above 20 µM.

In the case of `C[C@H](NC(=O)[C@H]1CN(c2ccc(C(=N)N)cc2)C(=O)O1)c1ccc2ccccc2c1` [Compound 30, (5R)‐3‐(4‐carbamimidoylphenyl)‐N‐[(1S)‐1‐(2‐naphthyl)ethyl]‐2‐oxo‐oxazolidine‐5‐carboxamide], the IC50 on KLK4 is 3.16 µM; at KLK7, above 20 µM; on KLK8, 10 µM; on Human trypsin, 3.98 µM; on Human thrombin, above 20 µM; at Human Factor Xa, above 20 µM. Also, on KLK6 [3] (setting [8]), the IC50 is 0.1 µM. Moreover, the KLK6 potency loss on KLK6 [3] (relative to 29) worked out at 10 fold.

For `COc1cccc(C(C)NC(=O)C2CC(=O)N(c3ccc(C(=N)N)cc3)C2)c1` [Compound 43, (5R)‐1‐(4‐carbamimidoylphenyl)‐N‐[(1S)‐1‐(3‐methoxyphenyl)ethyl]‐5‐oxopyrrolidine‐3‐carboxamide], the IC50 was 7.94 µM on KLK4; above 20 µM at KLK7; above 20 µM at KLK8; 5.01 µM on Human trypsin; above 20 µM on Human thrombin; above 20 µM on Human Factor Xa. In addition, the IC50 at KLK6 [3] (setting [8]) was 0.316 µM.

With `COc1cccc([C@H](C)NC(=O)[C@@H]2CCN(c3ccc(C(=N)N)cc3)C2)c1` [Compound 47, (3R)‐1‐(4‐carbamimidoylphenyl)‐N‐[(1S)‐1‐(3‐methoxyphenyl)ethyl]pyrrolidine‐3‐carboxamide], the IC50 on KLK4 is 1.26 µM; at KLK7, above 20 µM; at KLK8, 7.94 µM; on Human trypsin, 5.01 µM; on Human thrombin it was above 20 µM; at Human Factor Xa, above 20 µM. The IC50 at KLK6 [3] (setting [8]) was 0.794 µM.
